Like-named read-outs stand apart in the source and are kept apart here.
Key:
[1] = system: monoclonal antibody XIIIE82 /H8; test: Binding of radioactive Ca2+ channel blockers to monoclonal antibody XIIIE82 /H8-Sepharose 6MB beads; parameters: species or system mouse; details: for ability to bind to monoclonal antibody XIIIE82 /H8-Sepharose 6MB beads (in words): 1.0 nM concentration; for CPM Bound / fmoles of Ca2+ channel blocker specifically bound per μg of monoclonal antibody XIIIE82 /H8: [3H]calcium channel blocker 1.0 nM
Protocol: Various radioactive Ca^2+ channel blockers at a 1.0 nM concentration were tested for their ability to bind to monoclonal antibody XIIIE82 /H8-Sepharose 6MB beads.

[2] = system: monoclonal antibody XIIIE82 /H8; test: Nifedipine radioimmunoassay using monoclonal antibody XIIIE82 /H8-Sepharose 6MB beads; details: 100 pM [3H]nitrendipine
[3] = system: 1,4-dihydropyridine-specific antibodies; test: 1,4-Dihydropyridine radioimmunoassay (dextran-coated charcoal separation), nitrendipine standard curve; assay type: binding; details: 20 pM [3H]nitrendipine; for % B/Bo: 60 min
Protocol: After a 1 hour incubation in the dark at room temperature, the assay tubes were transferred to an ice water bath for 10 min. […] After an additional 12 minutes in the ice bath, the assay tubes were centrifuged for 15 minutes at 850×g in a Beckman TJ-6 centrifuge. A 0.80 ml sample of the clear supernatant was then added to 10 ml of liquid scintillation fluid and counted in a Beckman LS8100 liquid scintillation counter. […] An alternate procedure for the RIA on human plasma samples involves the dilutions of standards in normal pooled human plasma (rather than in bovine serum albumin in saline, as described above) and the use of 0.2 ml aliquots of standard or human plasma samples.

[4] = system: monoclonal antibody XH42 /G1
[5] = target: XH42 /Gl monoclonal antibody; test: Competitive binding assay according to the method of Muller, XH42 /Gl; parameters: species or system mouse; details: [3H]nitrendipine-XH42 /Gl monoclonal antibody complex; read-out: average apparent dissociation constant (kd)
Protocol: (§1) The affinity of the monoclonal antibodies of the present invention for [^3 H]nitrendipine was determined using a competitive binding assay according to the method of Muller (Muller, R., Methods in Enzylmology, 92, 589-601, 1983).

[6] = target: XIIIE82 /H8-monoclonal antibody; test: Competitive binding assay according to the method of Muller, XIIIE82 /H8; parameters: species or system mouse; details: [3H]nitrendipine-XIIIE82 /H8-monoclonal antibody complex; read-out: average apparent dissociation constant (Kd)
Protocol: as §1

[7] = system: polyclonal antibodies prepared against the immunogen conjugates; test: Cross-reactivity with polyclonal antibodies prepared against the immunogen conjugates; assay type: binding
[8] = system: New Zealand white rabbits; details: immunized rabbits
From the text: In order to raise antibodies against the 1,4-hydropyridines, a bovine serum albumin-nifedipine iothiocyanate immunogen conjugate was used directly for immunization or was cross-linked with 0.04% glutaraldehyde for eight hours at room temperature prior to immunization of rabbits. In either case, the immunogen conjugate was emulsified in an equal volume of Freund's complete adjuvant.
New Zealand white rabbits were bled to obtain pre-immune sera and were then immunized intramuscularly and intradermally at multiple sites along the back and legs. Rabbits received 0.5 milligram (mg) of bovine serum albumin-nifedipine isothiocyanate immunogen conjugate in Freund's complete adjuvant on day 0 followed by 0.5 mg insults in Freund's incomplete adjuvant every 2-3 weeks. Rabbits were bled after their third immunization every two weeks. Blood was withdrawn from the ear vein, allowed to clot overnight at 4° C., and serum was isolated by centrifugation. In order to reduce the antibodies produced to bovine serum albumin, subsequent immunizations were carried out with keyhole limpet hemocyanin-nifedipine isothiocyanate immunogen conjugates. […]

[9] = nifedipine standard 3.7 nanograms/ml in final assay mixture
[10] = nifedipine standard 11.2 nanograms/ml
[11] = nifedipine standard 18.7 nanograms/ml
[12] = nifedipine standard 37.3 nanograms/ml
[13] = nifedipine standard 112.0 nanograms/ml
[14] = nifedipine standard 186.7 nanograms/ml
[15] = nifedipine standard 373.4 nanograms/ml
[16] = nifedipine standard 1866.8 nanograms/ml
[17] = nitrendipine standard 18.0 picograms/ml in final assay mixture
[18] = nitrendipine standard 36.0 picograms/ml
[19] = nitrendipine standard 72.0 picograms/ml
[20] = nitrendipine standard 180.0 picograms/ml
[21] = nitrendipine standard 360.0 picograms/ml
[22] = nitrendipine standard 720.0 picograms/ml
[23] = nitrendipine standard 1800.0 picograms/ml
[24] = nitrendipine standard 0.4 nanograms/ml in final assay mixture
[25] = nitrendipine standard 1.1 nanograms/ml
[26] = nitrendipine standard 1.8 nanograms/ml
[27] = nitrendipine standard 3.7 nanograms/ml
[28] = nitrendipine standard 11.0 nanograms/ml
[29] = nitrendipine standard 18.3 nanograms/ml
[30] = nitrendipine standard 37.4 nanograms/ml

In the case of `COC(=O)C1=C(C)NC(C)=C(C(=O)OC(C)C)C1c1cccc2nonc12` (single isomer, unassigned) [[^3 H]PN200-110], the “ability to bind to monoclonal antibody XIIIE82 /H8-Sepharose 6MB beads (in words)” value (“ability to bind” for short) [1] is reported as “specifically bind”, the “CPM Bound” value [1] is reported as 9419 CPM and the “fmoles of Ca2+ channel blocker specifically bound per μg of monoclonal antibody XIIIE82 /H8” value [1] is reported as 4.8 fmol/µg.
For `COC(=O)C1=C(C)NC(C)=C(C(=O)OC)C1c1ccccc1[N+](=O)[O-]` [Nifedipine], the “% B/Bo” value [2, 9] was 102.0%, the “Net CPM” value [2, 9] was 8010 CPM and the “% B/Bo” value [2, 10] was 98.2%. The “Net CPM” value [2, 10] was 7708 CPM, the “% B/Bo” value [2, 11] was 76.7% and the “Net CPM” value [2, 11] was 6027 CPM. For the same compound, the “% B/Bo” value [2, 12] was 50.9%, the “Net CPM” value [2, 12] was 3998 CPM and the “% B/Bo” value [2, 13] was 23.4%. For the same compound, the “Net CPM” value [2, 13] was 1837 CPM, the “% B/Bo” value [2, 14] was 14.5% and the “Net CPM” value [2, 14] was 1138 CPM. The “% B/Bo” value [2, 15] was 8.6%, the “Net CPM” value [2, 15] was 677 CPM and the “% B/Bo” value [2, 16] was 2.4%. The “Net CPM” value [2, 16] was 190 CPM.
With `CCOC(=O)C1=C(C)NC(C)=C(C(=O)OC)C1c1cccc([N+](=O)[O-])c1` (centres unmarked) [Nitrendipine, 2,6-dimethyl-3-carboethoxy-5-carbomethoxy-4-(3-nitrophenyl)-1,4-dihydropyridine] the “Net CPM” value [3, 17] was 1492 CPM, the “% B/Bo” value [3, 17] was 85.4% and the “Net CPM” value [3, 18] was 1406 CPM. For the same compound, the “% B/Bo” value [3, 18] was 80.5%, the “Net CPM” value [3, 19] was 1024 CPM and the “% B/Bo” value [3, 19] was 58.6%. The “Net CPM” value [3, 20] was 673 CPM, the “% B/Bo” value [3, 20] was 38.5% and the “Net CPM” value [3, 21] was 482 CPM. For the same compound, the “% B/Bo” value [3, 21] was 27.6%, the “Net CPM” value [3, 22] was 346 CPM and the “% B/Bo” value [3, 22] was 19.8%. For the same compound, the “Net CPM” value [3, 23] was 225 CPM, the “% B/Bo” value [3, 23] was 12.9% and the “% B/Bo” value [4, 24] was 107.1%. For the same compound, the “Net CPM” value [4, 24] was 2043 CPM, the “% B/Bo” value [4, 25] was 87.8% and the “Net CPM” value [4, 25] was 1676 CPM. For the same compound, the “% B/Bo” value [4, 26] was 76.3%, the “Net CPM” value [4, 26] was 1456 CPM and the “% B/Bo” value [4, 27] was 60.2%. For the same compound, the “Net CPM” value [4, 27] was 1149 CPM, the “% B/Bo” value [4, 28] was 37.6% and the “Net CPM” value [4, 28] was 717 CPM. The “% B/Bo” value [4, 29] was 28.1%, the “Net CPM” value [4, 29] was 535 CPM and the “% B/Bo” value [4, 30] was 17.5%. The “Net CPM” value [4, 30] was 333 CPM.
With `COc1ccc([C@@H]2Sc3ccccc3N(CCN(C)C)C(=O)[C@@H]2OC(C)=O)cc1` [[^3 H]Diltiazem] the “ability to bind” value [1] was “did not bind”, the “CPM Bound” value [1] was 225 CPM and the “fmoles of Ca2+ channel blocker specifically bound per μg of monoclonal antibody XIIIE82 /H8” value [1] was 0.1 fmol/µg.
For `COC(=O)C1=C(C)NC(C)=C(C(=O)OC)C1c1ccccc1N=C=S` [[^3 H]Nifedipine-Analog, 1,4-dihydro-2,6-dimethyl-4-(2-isothiocyanatophenyl)-3,5-pyridinedicarboxylic acid dimethyl ester], the “ability to bind” value [1] was “specifically bind”, the “CPM Bound” value [1] was 26000 CPM and the “fmoles of Ca2+ channel blocker specifically bound per μg of monoclonal antibody XIIIE82 /H8” value [1] was 18.8 fmol/µg.
For `COCCOC(=O)C1=C(C)NC(C)=C(C(=O)OC(C)C)C1c1cccc([N+](=O)[O-])c1` (centres unmarked) [[^3 H]Nimodipine], the “ability to bind” value [1] was “specifically bind”, the “CPM Bound” value [1] was 57439 CPM and the “fmoles of Ca2+ channel blocker specifically bound per μg of monoclonal antibody XIIIE82 /H8” value [1] was 20.9 fmol/µg.
`CCOC(=O)C1=C(C)NC(C)=C(C(=O)OC)C1c1cccc([N+](=O)[O-])c1` (centres unmarked) [[^3 H]Nitrendipine, 2,6-dimethyl-3-carboethoxy-5-carbomethoxy-4-(3-nitrophenyl)-1,4-dihydropyridine] was tested, and the “ability to bind” value [1] was “specifically bind”, the “CPM Bound” value [1] was 59103 CPM and the “fmoles of Ca2+ channel blocker specifically bound per μg of monoclonal antibody XIIIE82 /H8” value [1] was 33.8 fmol/µg. For the same compound, the Kd [5] was 12.5 nM and the Kd [6] was 26 nM.
With `COc1ccc(CCN(C)CCCC(C#N)(c2ccc(OC)c(OC)c2)C(C)C)cc1OC` (centres unmarked) [[^3 H]Verapamil] the “ability to bind” value [1] was “did not bind”, the “CPM Bound” value [1] was 234 CPM and the “fmoles of Ca2+ channel blocker specifically bound per μg of monoclonal antibody XIIIE82 /H8” value [1] was 0.2 fmol/µg.
For `COc1ccc([C@@H]2Sc3ccccc3N(CCN(C)C)C(=O)[C@@H]2OC(C)=O)cc1` [diltiazem], the “cross-reaction with the antibodies” value [7] was “do not cross-react”.
`COc1ccc(CCN(C)CCCC(C#N)(c2ccc(OC)c(OC)c2)C(C)C)cc1OC` (centres unmarked) [verapamil] was tested, and the “cross-reaction with the antibodies” value [7] was “do not cross-react”.
In the case of Keyhole limpet hemocyanin, the “time to antibody response” value [8] is reported as 4 weeks and the “titer of antiserum of 1,4-dihydropyridine-specific antibodies” value [8] is reported as “highest titer”.

From patent US4784955A, “Immunogen conjugates and the use thereof in a dihydropyridine assay” (Miles Inc., priority 1986, dated 1988)
